Measured values as given in PubChem BioAssay AID1582.
Records with an inconclusive call do not appear.

These molecules were tested on S. cerevisiae PHO84-LacZ reporter, HDAC inhibition (assay: HDAC inhibitors via yeast reporter, S. cerevisiae, PHO84-LacZ (AID 1582)).
For `c1ccc2[nH]c(-c3cscn3)nc2c1`, the EC50 was 148 µM.
With `COc1cc(C)c2c(=O)cc(-c3ccccc3)oc2c1` the EC50 was 60 µM.
`CN(Cc1cnc2nc(N)nc(N)c2n1)c1ccc(C(=O)N[C@@H](CCC(=O)O)C(=O)O)cc1` showed an EC50 of 78 µM.
`NCCCCN` gave an EC50 of 125 µM.
Molecule `CC(C(=O)O)c1ccc(N2Cc3ccccc3C2=O)cc1` (configuration not stated) has an EC50 of 50 µM.
With `CCC(C)[C@H]1O[C@]2(C=C[C@@H]1C)C[C@@H]1C[C@@H](C/C=C(\C)[C@@H](OC3C[C@H](OC)C(O[C@H]4C[C@H](OC)[C@@H](O)[C@H](C)O4)[C@H](C)O3)[C@@H](C)/C=C/C=C3\CO[C@@H]4[C@H](O)C(C)=C[C@@H](C(=O)O1)[C@]34O)O2` (some centres not stated) the EC50 was 66 µM.
With `N#Cc1ccc2c(c1)N(CCCN1CCC(O)CC1)c1ccccc1S2` the EC50 was 148 µM.
